Experimental data reported in ChEMBL document CHEMBL5113436, “WCK 4034: A promising oxazolidinone for treating gram positive infections” (Bioorg Med Chem Lett, 2022).
In brackets after ≈: the same amount, converted by molar mass.

Key:
[1] = tested on: Staphylococcus aureus; assay: Antibacterial activity against methicillin-resistant Staphylococcus aureus Sta-032 incubated for 18 hrs by CLSI protocol based two-fold serial agar dilution method; type: functional
[2] = tested on: Staphylococcus aureus; assay: Antibacterial activity against Linezolid-resistant Staphylococcus aureus Sta-5059 incubated for 18 hrs by CLSI protocol based two-fold serial agar dilution method; type: functional
[3] = tested on: Haemophilus influenzae; assay: Antibacterial activity against Haemophilus influenzae […] ATCC 35054 incubated for 18 hrs by CLSI protocol based two-fold serial agar dilution method; type: functional
[4] = tested on: Staphylococcus aureus; assay: Antibacterial activity against methicillin-sensitive Staphylococcus aureus Sta-001 incubated for 18 hrs by CLSI protocol based two-fold serial agar dilution method; type: functional
[5] = tested on: Streptococcus pneumoniae; assay: Antibacterial activity against Streptococcus pneumoniae ATCC 49619 incubated for 18 hrs by CLSI protocol based two-fold serial agar dilution method; type: functional
[6] = tested on: Staphylococcus aureus; assay: Antibacterial activity against Linezolid-resistant Staphylococcus aureus Sta-5060 incubated for 18 hrs by CLSI protocol based two-fold serial agar dilution method; type: functional
[7] = tested on: Staphylococcus aureus; assay: Antibacterial activity against Staphylococcus aureus Sta-5027 infected in Swiss mouse model of septicemia administered by oral route 1 h and 5 h post-infection; type: functional; settings: Sta-5027, 168 h, time 7 day
[8] = Clearance in Wistar rat at 15 mg/kg, iv; type: ADME, organism-based; settings: in vivo
[9] = Volume of distribution in Wistar rat at 15 mg/kg, iv; type: ADME, organism-based; settings: in vivo
[10] = Clearance in Wistar rat at 30 mg/kg, iv; type: ADME, organism-based; settings: in vivo
[11] = Terminal half life in Wistar rat at 30 mg/kg, iv; type: ADME, organism-based; settings: in vivo
[12] = Terminal half life in Beagle dog at 15 mg/kg, iv; type: ADME, organism-based, Canis lupus familiaris; settings: in vivo
[13] = Cmax in Beagle dog at 15 mg/kg, iv; type: ADME, organism-based, Canis lupus familiaris; design: dose 15 mg/kg, route iv; settings: in vivo
[14] = Volume of distribution in Wistar rat at 30 mg/kg, iv; type: ADME, organism-based; settings: in vivo
[15] = AUC in Wistar rat at 15 mg/kg, iv; type: ADME, organism-based; design: dose 15 mg/kg, route iv; settings: in vivo
[16] = Cmax in Wistar rat at 30 mg/kg, iv; type: ADME, organism-based; design: dose 30 mg/kg, route iv; settings: in vivo
[17] = Cmax in Wistar rat at 15 mg/kg, iv; type: ADME, organism-based; design: dose 15 mg/kg, route iv; settings: in vivo
[18] = AUC in Beagle dog at 15 mg/kg, iv; settings: in vivo
[19] = AUC in Beagle dog at 15 mg/kg, iv; type: ADME, organism-based, Canis lupus familiaris; design: dose 15 mg/kg, route iv; settings: in vivo
[20] = Clearance in Beagle dog at 15 mg/kg, iv; type: ADME, organism-based, Canis lupus familiaris; settings: in vivo

| Structure (SMILES) | MIC [1] [µg/mL] | MIC [3] [µg/mL] | MIC [4] [µg/mL] | MIC [5] [µg/mL] | ED50 [7] [mg/kg] | also measured |
| --- | --- | --- | --- | --- | --- | --- |
| CC(=O)NC[C@H]1CN(c2cc(F)c(N3CCC4(OCCO4)[C@H](F)C3)c(F)c2)C(=O)O1 | 8 (≈ 18.6 µM) | 16 (≈ 37.3 µM) | 8 (≈ 18.6 µM) | 2 (≈ 4.66 µM) | 2.5 | MIC [2]: > 8 µg/mL; MIC [6]: > 8 µg/mL |
| O=C1O[C@@H](Cn2ccnn2)CN1c1ccc(N2CCC3(OCCO3)C(F)C2)c(F)c1 (some centres undefined) | 3.12 (≈ 7.4 µM) | > 16 | 16 (≈ 38 µM) | 4 (≈ 9.49 µM) |  |  |
| CC(=O)NC[C@H]1CN(c2ccc(N3CCC4(CC3)OCCO4)c(F)c2)C(=O)O1 | 4 (≈ 10.2 µM) | 16 (≈ 40.7 µM) | 4 (≈ 10.2 µM) | 4 (≈ 10.2 µM) | 5 |  |
| CC(=O)NC[C@H]1CN(c2ccc(N3CCC4(CC3)OCC(C)(C)CO4)c(F)c2)C(=O)O1 | 16 (≈ 36.7 µM) | > 16 | 16 (≈ 36.7 µM) | 8 (≈ 18.4 µM) |  |  |
| CC(=O)NC[C@H]1CN(c2ccc(N3CCC4(CC3)COCO4)c(F)c2)C(=O)O1 | 4 (≈ 10.2 µM) | > 16 | 4 (≈ 10.2 µM) | 2 (≈ 5.08 µM) | 5 |  |
| CC(=O)NC[C@H]1CN(c2ccc(N3CCC4(CC3)OCCS4)c(F)c2)C(=O)O1 | 4 (≈ 9.77 µM) | > 16 | 4 (≈ 9.77 µM) | 4 (≈ 9.77 µM) | 10 |  |
| CC(=O)NC[C@H]1CN(c2ccc(N3CCC4(OCCO4)C(C)(C)C3)c(F)c2)C(=O)O1 | 12.5 (≈ 29.7 µM) | 2 (≈ 4.75 µM) |  | 4 (≈ 9.49 µM) |  |  |
| CC(=O)NC[C@H]1CN(c2ccc(N3CCC4(CC3)OCC(C)O4)c(F)c2)C(=O)O1 (some centres undefined) | 8 (≈ 19.6 µM) |  |  |  | > 20 |  |
| CC(=O)NC[C@H]1CN(c2ccc(N3CCCC4(C3)OCCO4)c(F)c2)C(=O)O1 | 4 (≈ 10.2 µM) | 16 (≈ 40.7 µM) | 4 (≈ 10.2 µM) | 4 (≈ 10.2 µM) | 5 |  |
| O=C1O[C@@H](Cn2ccnn2)CN1c1cc(F)c(N2CCC3(OCCO3)C(F)C2)c(F)c1 (some centres undefined) | 4 (≈ 9.1 µM) | > 16 | 8 (≈ 18.2 µM) | 2 (≈ 4.55 µM) |  |  |
| CC(=O)NC[C@H]1CN(c2ccc(N3CCC4(CCO4)CC3)c(F)c2)C(=O)O1 | 6.25 (≈ 16.6 µM) | > 16 | 16 (≈ 42.4 µM) | 4 (≈ 10.6 µM) | 20 |  |
| CC(=O)NC[C@H]1CN(c2ccc(N3CCC4(CC3)COCCO4)c(F)c2)C(=O)O1 | 4 (≈ 9.82 µM) | > 16 | 4 (≈ 9.82 µM) | 2 (≈ 4.91 µM) | > 10 |  |
| CC(=O)NC[C@H]1CN(c2ccc(N3CCC4(CC3)COCCCO4)c(F)c2)C(=O)O1 | 4 (≈ 9.49 µM) | > 16 | 8 (≈ 19 µM) | 4 (≈ 9.49 µM) | 10 |  |
| CC(=O)NC[C@H]1CN(c2ccc(N3CCC4(CC3)NCCO4)c(F)c2)C(=O)O1 | 2 (≈ 5.1 µM) | 8 (≈ 20.4 µM) | 2 (≈ 5.1 µM) | 2 (≈ 5.1 µM) | 20 |  |
| CC(=O)NC[C@H]1CN(c2ccc(N3CCC4(CC3)CO4)c(F)c2)C(=O)O1 | 4 (≈ 11 µM) | 16 (≈ 44 µM) | 4 (≈ 11 µM) | 4 (≈ 11 µM) |  |  |
| CC(=O)NC[C@H]1CN(c2ccc(N3CCC4(OCCO4)C(F)C3)cc2)C(=O)O1 (some centres undefined) | 8 (≈ 20.3 µM) | > 16 | 16 (≈ 40.7 µM) | 4 (≈ 10.2 µM) | 5 |  |
| CC(=O)NC[C@H]1CN(c2ccc(N3CCC4(CC3)OCCCCO4)c(F)c2)C(=O)O1 | 16 (≈ 38 µM) | > 16 | 16 (≈ 38 µM) | 4 (≈ 9.49 µM) |  |  |
| CC(=O)NC[C@H]1CN(c2ccc(N3CCC4(CC3)SCCS4)c(F)c2)C(=O)O1 | 4 (≈ 9.4 µM) | > 16 | 8 (≈ 18.8 µM) | 2 (≈ 4.7 µM) | > 20 |  |
| CC(=O)NC[C@H]1CN(c2ccc(N3CCC4(OCCO4)C(F)C3)c(F)c2)C(=O)O1 (some centres undefined) | 4 (≈ 9.72 µM) |  | 12.5 (≈ 30.4 µM) | 2 (≈ 4.86 µM) | 5 |  |
| CC(=O)NC[C@H]1CN(c2ccc(N3CCC4(CC3)OCC[S+]4[O-])c(F)c2)C(=O)O1 (some centres undefined) | 4 (≈ 9.4 µM) | 8 (≈ 18.8 µM) | 4 (≈ 9.4 µM) | 2 (≈ 4.7 µM) | 10 |  |
| CS(=O)(=O)NC[C@H]1CN(c2ccc(N3CCC4(OCCO4)C(F)C3)c(F)c2)C(=O)O1 (some centres undefined) | 32 (≈ 71.5 µM) | > 16 | > 32 | > 8 | > 30 |  |
| CC(=O)NC[C@H]1CN(c2ccc(N3CCC4(CC3)OCC(C)(C)O4)c(F)c2)C(=O)O1 | 8 (≈ 19 µM) |  |  |  | > 20 |  |
| CC(=O)NC[C@H]1CN(c2cc(F)c(N3CCC4(OCCO4)[C@@H](F)C3)c(F)c2)C(=O)O1 | 2 (≈ 4.66 µM) | > 16 | 2 (≈ 4.66 µM) | 1 (≈ 2.33 µM) | 2.5 | CL [8]: 220.3 mL/min/kg; Vd [9]: 0.4 L/kg; MIC [2]: > 8 µg/mL; clearance ([10]; Wistar): 30.3 mL/min/kg; half-life ([11]; Wistar, read-out: beta t1/2 (converted)): 7.1 h; beta t1/2 [12]: 4.01 h; Cmax [13]: 7100 ng/mL; Vd ([14]; Wistar, read-out: Vd): 9.66 L/kg; AUC [15]: 7.32 µg·h/kg; MIC [6]: > 8 µg/mL; Cmax [16]: 10800 ng/mL; Cmax [17]: 2370 ng/mL; AUC [18]: 135 µg·h/mL; AUC [19]: 6.9 µg·h/kg; CL [20]: 1.7 mL/min/kg |
| CC(=O)NC[C@H]1CN(c2ccc(N3CCC4(CC3)NCCS4)c(F)c2)C(=O)O1 | 4 (≈ 9.79 µM) | 8 (≈ 19.6 µM) | 4 (≈ 9.79 µM) | 2 (≈ 4.9 µM) | 5 |  |
| CS(=O)(=O)OC[C@H]1CN(c2ccc(N3CCC4(OCCO4)C(F)C3)c(F)c2)C(=O)O1 (some centres undefined) | 6.25 (≈ 13.9 µM) |  | 12.5 (≈ 27.9 µM) | 4 (≈ 8.92 µM) | > 10 |  |
| CC(=O)NC[C@H]1CN(c2ccc(N3CCC4(OCCO4)C(C)C3)c(F)c2)C(=O)O1 (some centres undefined) | 32 (≈ 78.5 µM) | > 16 | 32 (≈ 78.5 µM) | 8 (≈ 19.6 µM) |  |  |
| CC(=O)NC[C@H]1CN(c2ccc(N3CCC4(CC3)OCCS4(=O)=O)c(F)c2)C(=O)O1 | > 32 | 16 (≈ 36.2 µM) | > 32 | 2 (≈ 4.53 µM) |  |  |
| CC(=O)NC[C@H]1CN(c2cc(F)c(N3CCC4(OCCO4)C(F)C3)c(F)c2)C(=O)O1 (some centres undefined) | 2 (≈ 4.66 µM) | 16 (≈ 37.3 µM) | 2 (≈ 4.66 µM) | > 4 | < 5 | MIC [2]: > 8 µg/mL; MIC [6]: > 8 µg/mL |
| CC(=O)NC[C@H]1CN(c2ccc(N3CCOCC3)c(F)c2)C(=O)O1 [LINEZOLID] |  | 4 (≈ 11.9 µM) |  |  | 2.5 | CL [8]: 34 mL/min/kg; Vd [9]: 0.4 L/kg; MIC [2]: > 8 µg/mL; CL ([10]; iv, 30 mg/kg): 9.33 mL/min/kg; beta t1/2 ([11]; iv, 30 mg/kg): 2.23 h; beta t1/2 [12]: 1.3 h; Cmax [13]: 1620 ng/mL; Vd ([14]; iv, 30 mg/kg): 17.82 L/kg; AUC [15]: 1.24 µg·h/kg; MIC [6]: > 8 µg/mL; Cmax [16]: 27300 ng/mL; Cmax [17]: 8700 ng/mL; AUC [18]: 78.2 µg·h/mL; AUC [19]: 19.9 µg·h/kg; CL [20]: 3.17 mL/min/kg |
